Activity calls are given as the source filed them. No cut-off for these calls is given here.
How the values were obtained:
A549 = assay: Antiproliferative activity against human A549 cells assessed as reduction in cell viability by MTS assay; assay type: functional, cell-based
HCT-116 [1] = assay: Antiproliferative activity against human HCT116 cells assessed as reduction in cell viability by MTS assay; assay type: functional, cell-based
MCF7 = assay: Antiproliferative activity against human MCF7 cells assessed as reduction in cell viability by MTS assay; assay type: functional, cell-based
ACHN = assay: Antiproliferative activity against human ACHN cells assessed as reduction in cell viability at 0.5 uM measured up to 72 hrs by MTS assay; assay type: functional, cell-based
HeLa = assay: Inhibition of colony formation in human HeLa at 0.1 uM after 2 weeks by trypan blue staining based assay relative to control; assay type: functional; conditions: 336 h
HepG2 [2] = assay: Induction of ROS generation in human HepG2 cells at 0.5 uM by DCFH-DA staining based fluorescence assay; assay type: functional, cell-based; conditions: TDE = time-dependent effect
T-24 = assay: Induction of apoptosis in human T24 cells assessed as increase in cleaved PARP1 level at 0.25 to 2 uM after 12 hrs by Western blot analysis; assay type: functional, cell-based
HepG2 [3] = assay: Induction of autophagy in human HepG2 cells assessed as increase in formation of autophagosomes at 0.5 uM by TEM analysis; assay type: functional, cell-based; conditions: TDE = time-dependent effect
HepG2 [4] = assay: Induction of autophagy in human HepG2 cells assessed as inhibition of lactate generation at 0.5 uM up to 4 hrs; assay type: functional, cell-based
HepG2 [5] = assay: Induction of apoptosis in human HepG2 cells assessed as increase in cleaved PARP level by measuring ratio of cleaved PARP to total PARP level at 1 uM after 12 hrs by Western blot analysis; assay type: functional
HepG2 [6] = assay: Induction of apoptosis in human HepG2 cells assessed as increase in cleaved PARP level by measuring ratio of cleaved PARP to total PARP level at 2 uM after 12 hrs by Western blot analysis; assay type: functional
HepG2 [7] = assay: Induction of autophagy in human HepG2 cells assessed as accumulation of LC3-2 protein level at 0.5 uM after 4 hrs in presence of CQ by Western blot analysis analysis relative to CQ; assay type: functional
HepG2 [8] = assay: Induction of autophagy in human HepG2 cells assessed as ratio of LC3-2 to total Erk1/2 protein level at 0.5 uM after 12 hrs in presence of CQ by Western blot analysis (reference value: 3.9); assay type: functional
HepG2 [9] = assay: Induction of autophagy in human HepG2 cells assessed as accumulation of LC3-2 protein level at 0.5 uM after 12 hrs in presence of CQ by Western blot analysis relative to CQ; assay type: functional
[10] = molecular target: Serine/threonine-protein kinase mTOR (Homo sapiens) (UniProt P42345); assay: Inhibition of mTOR phosphorylation at S2448 residue in human HepG2 cells assessed as ratio of phosphorylated mTOR to total mTOR level at 0.25 uM after 4 hrs by Western blot analysis (reference value: 1); assay type: cell-based
[11] = molecular target: Serine/threonine-protein kinase mTOR (Homo sapiens) (UniProt P42345); assay: Inhibition of mTOR phosphorylation at S2448 residue in human HepG2 cells assessed as ratio of phosphorylated mTOR to total ERK level at 0.1 uM after 4 hrs by Western blot analysis (reference value: 1); assay type: cell-based
[12] = molecular target: Serine/threonine-protein kinase mTOR (Homo sapiens) (UniProt P42345); assay: Inhibition of mTOR phosphorylation at S2448 residue in human HepG2 cells assessed as ratio of phosphorylated mTOR to total ERK level at 0.5 uM after 4 hrs by Western blot analysis (reference value: 1); assay type: cell-based
[13] = molecular target: RAC-alpha serine/threonine-protein kinase (Homo sapiens) (UniProt P31749); assay: Inhibition of AKT phosphorylation at S473 residue in human HepG2 cells assessed as ratio of phosphorylated Akt to total Akt level at 0.5 uM after 4 hrs by Western blot analysis (reference value: 1); assay type: cell-based
Sequence of RAC-alpha serine/threonine-protein kinase (Homo sapiens) (P31749 whole entry): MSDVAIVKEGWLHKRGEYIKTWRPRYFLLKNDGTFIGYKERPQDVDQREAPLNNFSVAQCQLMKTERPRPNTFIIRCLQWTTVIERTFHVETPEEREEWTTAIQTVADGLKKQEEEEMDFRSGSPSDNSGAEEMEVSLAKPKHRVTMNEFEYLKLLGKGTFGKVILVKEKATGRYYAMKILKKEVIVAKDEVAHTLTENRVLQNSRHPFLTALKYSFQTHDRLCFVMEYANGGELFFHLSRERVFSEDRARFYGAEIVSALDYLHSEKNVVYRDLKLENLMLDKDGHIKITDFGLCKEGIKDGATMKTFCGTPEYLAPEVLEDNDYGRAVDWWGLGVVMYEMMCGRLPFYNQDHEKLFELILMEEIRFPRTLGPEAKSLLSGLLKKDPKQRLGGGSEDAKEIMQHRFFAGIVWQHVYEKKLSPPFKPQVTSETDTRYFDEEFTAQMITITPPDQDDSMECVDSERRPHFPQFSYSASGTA

HepG2 [14] = assay: Induction of autophagy in human HepG2 cells assessed as ratio of LC3-2 level to total Erk1/2 protein level at 0.5 uM after 4 hrs in presence of CC and CQ by Western blot analysis (reference value: 2.4); assay type: functional
HepG2 [15] = assay: Activation of AMPKalpha in human HepG2 cells assessed as ratio of phosphorylated ACCalpha at S79 residue to total ERK level at 0.5 uM incubated for 4 hrs in presence of CC by Western blot analysis relative to CC; assay type: cell-based
HepG2 [16] = assay: Induction of autophagy in human HepG2 cells assessed as ratio of HK2 expression to total ERK level after 2 hrs by Western blot analysis (reference value: 1); assay type: functional
HepG2 [17] = assay: Induction of autophagy in human HepG2 cells assessed as ratio of LC3-2 level to total ERK level at 0.5 uM after 2 hrs in presence of CQ by Western blot analysis (reference value: 1); assay type: functional
HepG2 [18] = assay: Induction of autophagy in human HepG2 cells assessed as ratio of LC3-2 level to total ERK level at 0.5 uM after 2 hrs in presence of PFK15 by Western blot analysis (reference value: 1.1); assay type: functional
HepG2 [19] = assay: Induction of autophagy in human HepG2 cells assessed as ratio of LC3-2 level to total ERK level at 0.5 uM after 2 hrs in presence of PFK15 and CQ by Western blot analysis relative to PFK15; assay type: functional
HepG2 [20] = assay: Induction of autophagy in human HepG2 cells assessed as ratio of LC3-2 level to total ERK level at 0.5 uM after 2 hrs in presence of PFKFB3 siRNA by Western blot analysis (reference value: 0.8); assay type: functional
HepG2 [21] = assay: Induction of autophagy in human HepG2 cells assessed as ratio of LC3-2 level to total ERK level at 0.5 uM after 2 hrs in presence of PFKFB3 siRNA and CQ by Western blot analysis (reference value: 0.8); assay type: functional
HepG2 [22] = assay: Induction of autophagy in human HepG2 cells ratio of LC3-2 level to total ERK level at 0.5 uM after 2 hrs in presence of PFKFB3 siRNA and CQ by Western blot analysis relative to PFKFB3 siRNA; assay type: functional
HepG2 [23] = assay: Induction of autophagy in human HepG2 cells assessed as ratio of LC3-2 level to total ERK level at 0.5 uM after 2 hrs in presence of HK2 siRNA by Western blot analysis (reference value: 3.1); assay type: functional
HepG2 [24] = assay: Inhibition of colony formation in human HepG2 at 1 to 5 uM after 2 weeks by trypan blue staining based assay; assay type: functional, cell-based
HCT-116 [25] = assay: Inhibition of colony formation in human HCT116 at 1 to 5 uM after 2 weeks by trypan blue staining based assay; assay type: functional, cell-based
HepG2 [26] = assay: Induction of autophagy in human HepG2 cells assessed as increase in formation of autophagosomes at 0.5 uM after 2 to 48 hrs by TEM analysis; assay type: functional, cell-based
HepG2 [27] = assay: Induction of autophagy in human HepG2 cells assessed as increase in formation of autophagosome-like vacuoles at 0.5 uM after 2 to 48 hrs by TEM analysis; assay type: functional, cell-based
HepG2 [28] = assay: Induction of autophagy in human HepG2 cells assessed as inhibition of lactate generation at 5 uM up to 4 hrs; assay type: functional, cell-based
HepG2 [29] = assay: Induction of autophagy in human HepG2 cells assessed as ratio of LC3-2 level to total Erk1/2 protein level at 0.5 uM after 4 hrs in presence of CC by Western blot analysis (reference value: 1.3); assay type: functional

CC[C@@]12SS[C@]3(C(=O)N1C)[C@@H](O)C1(C45c6ccccc6N[C@@H]4N4C(=O)[C@]6([C@@H](C)O)SS[C@]4(C(=O)N6C)[C@H]5O)c4ccccc4N[C@@H]1N3C2=O (some centres undefined)
Activity (A549): Active | Activity (HCT-116 [1]): Active | Activity (MCF7): Active | Activity (ACHN): Active | inhibition at 0.1 µM (HeLa): 100% | Activity (HepG2 [2]): Tde | Activity (T-24): Active | Activity (HepG2 [3]): Tde | inhibition (HepG2 [4]): Active | Ratio (HepG2 [5]): 1 | Ratio (HepG2 [6]): 1.7 | fold change (FC) (HepG2 [7]): 2.3 | Ratio (HepG2 [8]): 4.2 | fold change (FC) (HepG2 [9]): 3.2 | Ratio [10]: 1.4 | Ratio [11]: 0.9 | Ratio [12]: 1 | Ratio [13]: 1.4 | Ratio (HepG2 [14]): 0.9 | fold change (FC) (HepG2 [15]): 0.7 | Ratio (HepG2 [16]): 0.8 | Ratio (HepG2 [17]): 3.1 | Ratio (HepG2 [18]): 1.3 | fold change (FC) (HepG2 [19]): 3.4 | Ratio (HepG2 [20]): 0.9 | Ratio (HepG2 [21]): 4.3 | fold change (FC) (HepG2 [22]): 4.8 | Ratio (HepG2 [23]): 1.6

CCC1(SC)C(=O)N2[C@H]3N(C)c4ccccc4C3(C34c5ccccc5N(C)[C@@H]3N3C(=O)C(SC)([C@@H](C)O)N(C)C(=O)C3(SC)[C@H]4O)[C@H](O)C2(SC)C(=O)N1C (some centres undefined)
Activity (A549): Active | Activity (HCT-116 [1]): Active | Activity (MCF7): Active | inhibition (HepG2 [24]): Active | inhibition (HCT-116 [25]): Active | Activity (HepG2 [26]): Active | Activity (HepG2 [27]): Active | inhibition (HepG2 [28]): Active | fold change (FC) (HepG2 [7]): 2.8 | Ratio (HepG2 [8]): 4.4 | fold change (FC) (HepG2 [9]): 3.6 | Ratio [10]: 2.2 | Ratio [11]: 1 | Ratio [12]: 1 | Ratio [13]: 1.4 | Ratio (HepG2 [29]): 0.7 | Ratio (HepG2 [14]): 0.9 | fold change (FC) (HepG2 [15]): 0.7 | Ratio (HepG2 [16]): 0.6 | Ratio (HepG2 [17]): 3.2 | Ratio (HepG2 [18]): 1.6 | fold change (FC) (HepG2 [19]): 2.4 | Ratio (HepG2 [20]): 1 | Ratio (HepG2 [21]): 4.6 | fold change (FC) (HepG2 [22]): 4.6 | Ratio (HepG2 [23]): 1.1

From ChEMBL document CHEMBL4613241, “Disulfide Cleavage in a Dimeric Epipolythiodioxopiperazine Natural Product Diminishes Its Apoptosis-Inducing Effect but Enhances Autophagy in Tumor Cells” (2020)
